The nature of data set [1]: Phase 1 dose escalation (Example 3): PK evaluation / drug-drug interaction. The class given is in vivo, human. To be noted: for exposure under drug-drug interaction with a concomitant medication (strong CYP3A inducer): discontinued at end of cycle 2; for AUC: human, plasma, oral, 600 mg QD, read-out: AUCss for Compound A. As to the method: Phase 1 of the study is a single-arm dose escalation study of Compound A in combination with a fixed dose of enzalutamide (120 mg/day). This portion of the study primarily evaluates the safety and tolerability of the drug combination and establishes the RP2CD for Compound A and enzalutamide when dosed in combination. In addition, blood sampling will be conducted for PK evaluation to assess the potential drug-drug interaction (DDI) between the two drugs.
In the Phase 1 part of the study each dose cohort will receive a 7-day run-in with single agent Compound A to establish steady-state concentrations of this drug at that dose level, followed by 28-day cycles of the combination Compound A with enzalutamide. Subjects may remain on study treatment as long as they are tolerating treatment without disease progression based on Response Evaluation Criteria in Solid Tumors (RECIST) v1.1 or based on Prostate Cancer Working Group 3 (PCWG3) criteria. A 30-day End of Treatment Visit will be conducted 30 days from the date of the last dose.
For Cohort 1, subjects (n=3) were orally administered 600 mg QD (once a day) of Compound A alone for 7 days then administered 600 mg QD Compound A in combination with 120 mg QD enzalutamide for at least one cycle (e.g., 28 days). Two subjects received the combination of Compound A and enzalutamide for at least 4 cycles (e.g., 16 weeks).
The plasma concentration data for Compound A, enzalutamide, N-desmethylated enzalutamide (M2; active metabolite) will be analyzed using non-compartmental methods to obtain estimates of standard PK parameters.
PK parameters of Compound A following multiple dosing including but not limited to plasma area under the concentration-time curve from time zero to 24 hours (AUC0-24), maximum concentration (Cmax), observed pre-dose plasma concentration during multiple dosing (Ctrough), time to reach Cmax (Tmax), apparent terminal elimination half-life (t½; whenever feasible to calculate), apparent volume of distribution at steady state after extravascular administration (Vss/F), apparent clearance after extravascular administration (CL/F).
PK parameters of enzalutamide and its primary active metabolite following multiple dosing including but not limited to AUC0-24, Cmax, Ctrough, Tmax, t½ (whenever feasible to calculate), Vss/F, CL/F.

For data set [2] the following is noted: enzalutamide monotherapy, cited from earlier work.
Where [3] appears, read: Cohort 1: 600 mg QD Compound A + 120 mg QD enzalutamide.

Structures are written as SMILES. Like-named read-outs stand apart in the source and are kept apart here.

Regarding `CC(C)(c1ccc(OCc2ccnc(NS(C)(=O)=O)n2)cc1)c1cc(Cl)c(OCCCl)c(C#N)c1` [Compound A, N-(4-((4-(2-(3-chloro-4-(2-chloroethoxy)-5-cyanophenyl)propan-2-yl)phenoxy)methyl)pyrimidin-2-yl)methanesulfonamide], the “exposure under drug-drug interaction with a concomitant medication (strong CYP3A inducer)” value in data set [1] (Cohort 1, third subject) was “significant decrease in exposure”. In addition, in data set [1] (setting [3]), the “Compound A exposure, impact of enzalutamide” value is recorded as “impacted by enzalutamide with higher metabolism of Compound A observed”. Moreover, the AUC in data set [1] (Cohort 1, first subject, no prior chemotherapy (FIG. 1A)) is about 235000 ng·h/mL; in data set [1] (Cohort 1, second subject, prior chemotherapy (FIG. 1B)) it was about 62000 ng·h/mL; in data set [1] (Cohort 1, third subject, prior chemotherapy, concomitant strong CYP3A inducer (FIG. 1C)), about 33000 ng·h/mL.

For the compound `CNC(=O)c1ccc(N2C(=S)N(c3ccc(C#N)c(C(F)(F)F)c3)C(=O)C2(C)C)cc1F` [enzalutamide, reference compound], the “exposure under drug-drug interaction with a concomitant medication (strong CYP3A inducer)” value in data set [1] (Cohort 1, third subject) is listed as “significant decrease in exposure”. In data set [1] (setting [3]), the “enzalutamide exposure, impact of Compound A administration” value was “only minimally impacted”. The “90 day confirmed PSA<0.2 ng/mL rate” value in data set [2] (post-chemotherapy population) is on record as 1%; in data set [2] (pre-chemotherapy population), 5%.

(Values after US20240358701A1, “PHARMACEUTICAL COMPOSITIONS AND COMBINATIONS COMPRISING INHIBITORS OF THE ANDROGEN RECEPTOR AND USES THEREOF” (ESSA Pharma Inc., priority 2021, published 2024).)
